Measured values reported in patent publication US11236042B2, “Methylmenthol derivative and cool-sensation imparter composition containing same” (TAKASAGO INTERNATIONAL CORPORATION, priority 2017, dated 2022).

Tests used:
human TRPM8 = target: T1, human TRPM8 (Homo sapiens, UniProt Q7Z2W7); experiment: Evaluation of human TRPM8 activity (cool-feeling intensity), calcium fluorescence in stable expression cells; assay type: cell-based; settings: Fluo4-AM, 32° C., read-out: EC50 value in TRPM8 activation action
T1 construct: The full-length human TRPM8 gene was amplified from plasmid RC220615 (manufactured by Origene) using a PCR method; host or cells: Flp-In T-REx 293 cells ('Flp-In293293 cells' [sic]), pcDNA5/FRT/TO, doxycycline-induced
Experimental: It is common that a compound having a cooling effect such as menthol generally induces a cool-feeling by activating melastatin transient receptor potential channel 8 (TRPM8) as a cold stimulation receptor (for example, see J. Neurobiol. (2004), Vol. 61, PP. 3-12). Therefore, in order to evaluate the cool-feeling intensity, EC50 values of the exemplary compounds obtained in the Examples in TRPM8 activation actions were evaluated according to the following procedures.
The full-length human TRPM8 gene was amplified from plasmid RC220615 (manufactured by Origene) using a PCR method. The obtained PCR product was subcloned into pcDNA5/FRT/TO (manufactured by Thermo Fisher Scientific K.K.), and then it was introduced into Flp-In293293 cells (manufactured by Thermo Fisher Scientific K.K.) by using a Flp-InT-REx system (manufactured by Thermo Fisher Scientific K.K.), so that a human TRPM8 stable expression cell line was prepared.
The cultured human TRPM8 stable expression cells were seeded at a ratio of 50,000 cells/well to a poly-D-lysine-coated 96-well microplate (manufactured by Corning Incorporated), 1 μg/mL of doxycycline (manufactured by Takara Bio Inc.) was added thereto, and then the seeded cells were cultured at 37° C. for one night, so that the expression of the human TRPM8 was induced.
The culture solution was replaced with a buffer solution, and then, a fluorescent calcium indicator (Fluo4-AM: manufactured by Dojindo) was added thereto, the cells were incubated at 37° C. for 30 minutes, and they were transferred to a fluorescent microplate reader (FlexStation3: Molecular Devices, LLC.). Exemplary compounds were added in a final concentration range of 0.1 μM to 1000 μM, and the changes in fluorescence having a wavelength of 525 nm when excited at a wavelength of 485 nm were measured at a device temperature of 32° C., so as to calculate EC50 values.

[1] = Sensory evaluation of 30 ppm aqueous solution by three flavorists; assay type: in vivo, human; settings: for intensity of cool-feeling: mouth rinsed and spat out; for intensity of cool-feeling compared with comparative compounds: 30 ppm aqueous solutions
Experimental: The sensory evaluation was performed by comparing the exemplary compound (1-1) with the so far known comparative compounds 1 to 4. Comparative compounds 1, 3, and 4 were synthesized according to the method described in WO 2016/153011 A1, and comparative compound 2 was synthesized according to the method described in WO 2005/020897 A1. The exemplary compound (1-1) and comparative compounds 1 to 4 were separately prepared into a 30 ppm aqueous solution, and the aqueous solution was used to perform the evaluation.
The evaluation was performed by three flavorists. The aqueous solution was taken into the mouth and spat out after the mouth was rinsed, and intensity, persistence, and quality of a cool-feeling in the oral cavity were evaluated.
A 30 ppm aqueous solution of the exemplary compound (1-2) was prepared and used to perform the evaluation.
A 30 ppm aqueous solution of the exemplary compound (1-3) was prepared and used to perform the evaluation.
A 30 ppm aqueous solution of the exemplary compound (1-5) was prepared and used to perform the evaluation.

T1 sequence (Q7Z2W7 whole entry): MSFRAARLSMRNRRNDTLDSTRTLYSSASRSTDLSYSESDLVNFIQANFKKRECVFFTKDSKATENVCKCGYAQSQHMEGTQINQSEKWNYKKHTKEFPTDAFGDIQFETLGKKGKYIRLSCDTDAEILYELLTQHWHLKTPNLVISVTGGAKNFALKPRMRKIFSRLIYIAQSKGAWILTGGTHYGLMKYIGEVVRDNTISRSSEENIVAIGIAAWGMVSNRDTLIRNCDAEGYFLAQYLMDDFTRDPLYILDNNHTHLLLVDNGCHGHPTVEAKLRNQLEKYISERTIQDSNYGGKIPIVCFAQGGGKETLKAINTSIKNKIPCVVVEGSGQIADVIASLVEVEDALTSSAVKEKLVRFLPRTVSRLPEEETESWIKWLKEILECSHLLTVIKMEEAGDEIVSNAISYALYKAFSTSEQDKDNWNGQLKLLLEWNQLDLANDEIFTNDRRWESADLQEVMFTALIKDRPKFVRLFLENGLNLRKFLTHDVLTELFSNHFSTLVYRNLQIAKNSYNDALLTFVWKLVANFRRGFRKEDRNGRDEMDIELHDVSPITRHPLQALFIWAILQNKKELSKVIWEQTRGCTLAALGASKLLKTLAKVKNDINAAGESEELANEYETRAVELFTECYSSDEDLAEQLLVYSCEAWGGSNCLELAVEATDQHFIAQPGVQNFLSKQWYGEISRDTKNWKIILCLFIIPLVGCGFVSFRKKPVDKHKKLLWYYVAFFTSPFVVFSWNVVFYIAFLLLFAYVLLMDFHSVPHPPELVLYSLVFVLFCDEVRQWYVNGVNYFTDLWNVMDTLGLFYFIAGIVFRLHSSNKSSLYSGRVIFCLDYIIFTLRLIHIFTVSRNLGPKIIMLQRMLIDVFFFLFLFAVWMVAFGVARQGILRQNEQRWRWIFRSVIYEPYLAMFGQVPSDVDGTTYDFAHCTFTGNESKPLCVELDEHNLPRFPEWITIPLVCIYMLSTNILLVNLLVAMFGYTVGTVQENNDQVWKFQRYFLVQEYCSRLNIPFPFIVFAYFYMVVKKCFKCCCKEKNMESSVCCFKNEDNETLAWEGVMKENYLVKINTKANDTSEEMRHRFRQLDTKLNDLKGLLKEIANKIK

| EC50 (human TRPM8) | melting point | SMILES | other results |
| --- | --- | --- | --- |
| 0.041 µM | – | CC(C)C1CCC(C)(C)CC1C(=O)NCC(O)c1ccccc1 (stereo not shown) [1-1] | – |
| 0.0241 µM | – | CC(C)C1CCC(C)(C)CC1C(=O)NC[C@@H](O)c1ccccc1 (stereo partly shown) [1-2] | – |
| 0.0736 µM | – | CC(C)C1CCC(C)(C)CC1C(=O)NC[C@H](O)c1ccccc1 (stereo partly shown) [1-3] | – |
| 0.541 µM | – | CC(=O)OC(CNC(=O)C1CC(C)(C)CCC1C(C)C)c1ccccc1 (stereo not shown) [1-4] | – |
| 0.149 µM | – | CC(C)C1CCC(C)(C)CC1C(=O)NCC(=O)c1ccccc1 (stereo not shown) [1-5] | – |
| 0.388 µM | – | CC(CNC(=O)C1CC(C)(C)CCC1C(C)C)c1ccccc1 (stereo not shown) [1-6] | – |
| 0.555 µM | – | CC(C)C1CCC(C)(C)CC1C(=O)NC[C@@H](C)c1ccccc1 (stereo partly shown) [1-7] | – |
| 0.61 µM | – | CC(C)C1CCC(C)(C)CC1C(=O)NC[C@H](C)c1ccccc1 (stereo partly shown) [1-8] | – |
| 0.0298 µM | – | CC(C)C1CCC(C)(C)CC1C(=O)NCCc1ccc(O)cc1 (stereo not shown) [1-9] | – |
| 0.158 µM | – | COc1ccc(CCNC(=O)C2CC(C)(C)CCC2C(C)C)cc1 (stereo not shown) [1-10] | – |
| 0.113 µM | – | CC(C)C1CCC(C)(C)CC1C(=O)NCCc1ccc(O)c(O)c1 (stereo not shown) [1-11] | – |
| 0.403 µM | – | COc1ccc(CCNC(=O)C2CC(C)(C)CCC2C(C)C)cc1OC (stereo not shown) [1-12] | – |
| 0.0502 µM | – | CC(C)C1CCC(C)(C)CC1C(=O)NCCc1ccccc1 (stereo not shown) [1-13] | – |

The remaining lines, values behind:

| SMILES | EC50 (human TRPM8) | melting point | other results |
| --- | --- | --- | --- |
| CC(C)[C@@H]1CC[C@@H](C)CC1C(=O)NCC(O)c1ccccc1 (stereo partly shown) [Comparative compound 2, reference compound] | – | – | persistence of cool-feeling ([1]; 30 ppm aqueous solution): persistent; intensity of cool-feeling ([1]; 30 ppm aqueous solution): very strong; intensity of cool-feeling compared with comparative compounds [1]: same cooling intensity and persistence as those of the exemplary compound (1-1) |
| CC(C)C1CCC(C)(C)CC1C(=O)NCC(O)c1ccccc1 (stereo not shown) [Exemplary Compound 1-1, N-(2-hydroxy-2-phenylethyl)-2-isopropyl-5,5-dimethyl cyclohexane carboxamide] | – | – | persistence: cool-feeling lasted for ([1]; 30 ppm aqueous solution): ≥ 60 min; start of the cool-feeling ([1]; 30 ppm aqueous solution): clearly faster than the comparative compounds 1 to 4; intensity of cool-feeling ([1]; 30 ppm aqueous solution): very strong; intensity of cool-feeling compared with comparative compounds [1]: clearly stronger than those of the comparative compounds 3 and 4 |
| CC(C)C1CCC(C)(C)CC1C(=O)NC[C@@H](O)c1ccccc1 (stereo partly drawn) [Exemplary Compound 1-2, N—((S)-2-hydroxy-2-phenylethyl)-2-isopropyl-5,5-dimethyl cyclohexane carboxamide] | – | – | persistence: cool-feeling lasted for ([1]; 30 ppm aqueous solution): ≥ 90 min; start of the cool-feeling ([1]; 30 ppm aqueous solution): strong cool-feeling was felt when the exemplary compound (1-2) was put in the mouth; intensity of cool-feeling ([1]; 30 ppm aqueous solution): very strong |
| CC(C)C1CCC(C)(C)CC1C(=O)NC[C@H](O)c1ccccc1 (stereo partly drawn) [Exemplary Compound 1-3, N—((R)-2-hydroxy-2-phenylethyl)-2-isopropyl-5,5-dimethyl cyclohexane carboxamide] | – | – | persistence: cool-feeling lasted for ([1]; 30 ppm aqueous solution): ≥ 60 min; start of the cool-feeling ([1]; 30 ppm aqueous solution): strong cool-feeling was felt when the exemplary compound (1-3) was put in the mouth; intensity of cool-feeling ([1]; 30 ppm aqueous solution): very strong |
| CC(C)C1CCC(C)(C)CC1C(=O)NCC(=O)c1ccccc1 (stereo not shown) [Exemplary Compound 1-5, 2-isopropyl-5,5-dimethyl-N-(2-oxo-2-phenylethyl) cyclohexane carboxamide] | – | 85 to 88 °C | persistence: cool-feeling lasted for ([1]; 30 ppm aqueous solution): ≥ 60 min; start of the cool-feeling ([1]; 30 ppm aqueous solution): gradually felt strongly; intensity of cool-feeling ([1]; 30 ppm aqueous solution): very strongly at the peak time |
| CC(CNC(=O)C1CC(C)(C)CCC1C(C)C)c1ccccc1 (stereo not shown) [Exemplary Compound 1-6, 2-isopropyl-5,5-dimethyl-N-(2-phenylpropyl) cyclohexane carboxamide] | – | 80 to 85 °C | – |
| CC(C)C1CCC(C)(C)CC1C(=O)NC[C@@H](C)c1ccccc1 (stereo partly drawn) [Exemplary Compound 1-7, 2-isopropyl-5,5-dimethyl-N—((S)-2-phenylpropyl) cyclohexane carboxamide] | – | 125 to 133 °C | – |
| CC(C)C1CCC(C)(C)CC1C(=O)NC[C@H](C)c1ccccc1 (stereo partly drawn) [Exemplary Compound 1-8, 2-isopropyl-5,5-dimethyl-N—((R)-2-phenylpropyl) cyclohexane carboxamide] | – | 127 to 134 °C | – |
| CC(C)C1CCC(C)(C)CC1C(=O)NCCc1ccc(O)cc1 (stereo not shown) [Exemplary Compound 1-9, N-(4-hydroxyphenylethyl)-2-isopropyl-5,5-dimethyl cyclohexane carboxamide] | – | 183 to 190 °C | – |
| COc1ccc(CCNC(=O)C2CC(C)(C)CCC2C(C)C)cc1 (stereo not shown) [Exemplary Compound 1-10, 2-isopropyl-N-(4-methoxyphenylethyl)-5,5-dimethyl cyclohexane carboxamide] | – | 86 to 88 °C | – |
| COc1ccc(CCNC(=O)C2CC(C)(C)CCC2C(C)C)cc1OC (stereo not shown) [Exemplary Compound 1-12, N-(3,4-dimethoxyphenylethyl)-2-isopropyl-5,5-dimethyl cyclohexane carboxamide] | – | 85 to 89 °C | – |
| CC(C)C1CCC(C)(C)CC1C(=O)NCCc1ccccc1 (stereo not shown) [Exemplary Compound 1-13, 2-isopropyl-5,5-dimethyl-N-phenylethyl cyclohexane carboxamide] | – | 90 to 93 °C | – |
